# According to patent publication US20250011318A1 (ARCUS BIOSCIENCES, INC., priority 2023, published 2025):
# Key:
# [1] = target: T1, Cbl-b (Homo sapiens, UniProt Q13191); test: Cbl-b probe displacement HTRF binding assay; details: 0.4 nM biotinylated Cbl-b, 150 nM BODIPY probe
# T1 construct: biotin (biotinylated)
# In short: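 Biotinylated Cbl-b (0.4 nM) preincubated 60 min at RT with compound (20-point 1:2 series, 10 μM top), then 150 nM BODIPY probe for 15 min, then streptavidin-terbium detection. Buffer: 20 mM Hepes, 150 mM NaCl, 0.01% Triton X-100, 0.5 mM TCEP, 0.01% BSA. Loss of HTRF signal gave IC50 via four-parameter fit.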
# [2] = system: Jurkat cells; test: IL-2 secretion assay in CD3/CD28-activated Jurkat cells (AlphaLISA); format: cell-based, human; details: Homo sapiens, CD3/CD28 T Cell Activator, 24 h, IL-2 AlphaLISA
# In short: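 Jurkat cells (50,000/well) preincubated 1 h at 37° C with compound (16-point 1:2 series, final 10 μM to 300 pM) in Opti-MEM, then stimulated with CD3/CD28 activator for 24 h. Supernatant IL-2 read by AlphaLISA; EC50 from 4-parameter logistic fit.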
# T1 sequence (Q13191 whole entry, species assumed): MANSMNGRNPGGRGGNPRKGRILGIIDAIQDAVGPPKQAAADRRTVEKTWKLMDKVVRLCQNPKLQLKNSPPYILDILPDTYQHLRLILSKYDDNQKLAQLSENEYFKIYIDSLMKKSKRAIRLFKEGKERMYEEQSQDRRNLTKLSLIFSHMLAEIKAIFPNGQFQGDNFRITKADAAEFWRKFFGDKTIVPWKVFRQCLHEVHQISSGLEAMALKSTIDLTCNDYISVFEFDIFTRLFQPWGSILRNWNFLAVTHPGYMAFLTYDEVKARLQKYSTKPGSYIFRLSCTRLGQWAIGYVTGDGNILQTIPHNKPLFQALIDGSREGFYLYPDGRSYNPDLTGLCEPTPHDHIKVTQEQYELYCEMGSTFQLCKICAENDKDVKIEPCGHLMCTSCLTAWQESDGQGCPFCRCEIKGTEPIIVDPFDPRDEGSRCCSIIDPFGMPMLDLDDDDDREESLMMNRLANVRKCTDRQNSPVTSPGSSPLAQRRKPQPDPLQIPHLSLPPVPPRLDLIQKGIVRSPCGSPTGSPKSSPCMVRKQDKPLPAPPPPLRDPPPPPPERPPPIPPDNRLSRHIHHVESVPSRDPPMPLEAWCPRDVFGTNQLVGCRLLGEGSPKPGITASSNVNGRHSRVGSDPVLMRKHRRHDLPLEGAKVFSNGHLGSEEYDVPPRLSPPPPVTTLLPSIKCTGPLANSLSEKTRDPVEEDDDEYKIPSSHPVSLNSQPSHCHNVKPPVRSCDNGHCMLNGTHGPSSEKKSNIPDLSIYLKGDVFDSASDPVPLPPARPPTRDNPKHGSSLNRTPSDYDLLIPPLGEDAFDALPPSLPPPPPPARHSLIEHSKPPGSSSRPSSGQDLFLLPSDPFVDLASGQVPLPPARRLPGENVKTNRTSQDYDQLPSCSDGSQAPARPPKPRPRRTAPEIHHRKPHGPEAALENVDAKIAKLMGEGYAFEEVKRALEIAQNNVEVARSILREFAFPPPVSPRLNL
Compound,IC50 [1],EC50 [2]
Cn1cnnc1-c1cc(C#N)ccc1-c1cc(C2CC2)nc(-n2cc(C3CC3)c3cc[nH]c3c2=O)c1 [Example 4],1 to 5 µM,> 5 µM
"C[C@H]1CCCN(Cc2cc3c(C4CC4)cn(-c4cc(-c5ccc(C(F)(F)F)cc5-c5nccn5C)cc(C5CC5)n4)c(=O)c3[nH]2)C1 [Example 83, 4-Cyclopropyl-6-[6-cyclopropyl-4-[2-(1-methylimidazol-2-yl)-4-(trifluoromethyl)phenyl]pyridin-2-yl]-2-[[(3S)-3-methylpiperidin-1-yl]methyl]-1H-pyrrolo[2,3-c]pyridin-7-one]",< 0.1 µM,< 0.1 µM
"Cn1cnnc1-c1cc(F)ccc1-c1cc(C2CC2)nc(-n2cc(C#N)c3cc(C(O)C4CCOC4)[nH]c3c2=O)c1 (stereo not shown) [Example 90, 6-{6-cyclopropyl-4-[4-fluoro-2-(4-methyl-4H-1,2,4-triazol-3-yl)phenyl]-2-pyridyl}-2-[hydroxy(tetrahydro-3-furyl)methyl]-7-oxo-1,6-dihydro-1,6-diaza-4-indenecarbonitrile]",< 0.1 µM,0.1 to 1 µM
"CC1(NCc2cc3c(C4CC4)cn(-c4cc(-c5ccc(C#N)cc5-c5ncccc5C(F)(F)F)cc(C5CC5)n4)c(=O)c3[nH]2)CCC1 [Example 73, 4-(6-cyclopropyl-2-{4-cyclopropyl-2-[(1-methylcyclobutylamino)methyl]-7-oxo-1,6-dihydro-1,6-diaza-6-indenyl}-4-pyridyl)-3-[3-(trifluoromethyl)-2-pyridyl]benzonitrile]",< 0.1 µM,0.1 to 1 µM
"Cc1c[nH]nc1-c1cc(F)ccc1-c1cccc(-n2cc(C3CC3)c3cc(CN4CCC[C@H](C)C4)[nH]c3c2=O)c1 [Example 21, 4-cyclopropyl-6-[3-[4-fluoro-2-(4-methyl-1H-pyrazol-3-yl)phenyl]phenyl]-2-[[(3S)-3-methylpiperidin-1-yl]methyl]-1H-pyrrolo[2,3-c]pyridin-7-one]",< 0.1 µM,0.1 to 1 µM
"Cn1cnnc1-c1cc(F)ccc1-c1cc(C2CC2)nc(-n2cnc3cc(CNC4(C)CCC4)[nH]c3c2=O)c1 [Example 29, 3-[6-cyclopropyl-4-[4-fluoro-2-(4-methyl-1,2,4-triazol-3-yl)phenyl]pyridin-2-yl]-6-[[(1-methylcyclobutyl)amino]methyl]-5H-pyrrolo[3,2-d]pyrimidin-4-one]",< 0.1 µM,< 0.1 µM
"Cn1ccnc1-c1cc(F)ccc1-c1cc(C2CC2)nc(-n2cc(C3CC3)c3cc(CNC4(C)CCC4)[nH]c3c2=O)c1 [Example 55, 4-cyclopropyl-6-{6-cyclopropyl-4-[4-fluoro-2-(1-methyl-2-imidazolyl)phenyl]-2-pyridyl}-2-[(1-methylcyclobutylamino)methyl]-1,6-dihydro-1,6-diaza-7-indenone]",< 0.1 µM,< 0.1 µM
"N#Cc1c[nH]c2c(=O)n(-c3cc(-c4ccc(F)cc4-c4nncn4C(F)F)cc(C4CC4)n3)cc(C(F)(F)F)c12 [Example 134, 6-[6-cyclopropyl-4-[2-[4-(difluoromethyl)-1,2,4-triazol-3-yl]-4-fluorophenyl]pyridin-2-yl]-7-oxo-4-(trifluoromethyl)-1H-pyrrolo[2,3-c]pyridine-3-carbonitrile]",< 0.1 µM,< 0.1 µM
"Cn1ccnc1-c1cc(F)ccc1-c1cc(C2CC2)nc(-n2cc(C3CC3)c3cc(CNC4(CO)CCC4)[nH]c3c2=O)c1 [Example 53, 4-cyclopropyl-6-{6-cyclopropyl-4-[4-fluoro-2-(1-methyl-2-imidazolyl)phenyl]-2-pyridyl}-2-{[1-(hydroxymethyl)cyclobutylamino]methyl}-1,6-dihydro-1,6-diaza-7-indenone]",< 0.1 µM,< 0.1 µM
"Cc1cc2ncn(-c3cc(-c4ccc(F)cc4-c4nncn4C)cc(C4CC4)n3)c(=O)c2[nH]1 [Example 124, 3-[6-cyclopropyl-4-[4-fluoro-2-(4-methyl-1,2,4-triazol-3-yl)phenyl]-pyridin-2-yl]-6-methyl-5H-pyrrolo[3,2-d]pyrimidin-4-one]",< 0.1 µM,0.1 to 1 µM
"C[C@H]1CCCN(Cc2nc3c(C(F)(F)F)cn(-c4cc(-c5ccc(F)cc5-c5nncn5C)cc(C5CC5)n4)c(=O)c3[nH]2)C1 [Example 50, 5-[6-cyclopropyl-4-[4-fluoro-2-(4-methyl-1,2,4-triazol-3-yl)phenyl]pyridin-2-yl]-2-[[(3S)-3-methylpiperidin-1-yl]methyl]-7-(trifluoromethyl)-3H-imidazo[4,5-c]pyridin-4-one]",< 0.1 µM,< 0.1 µM
"Cn1cnnc1-c1cc(F)ccc1-c1cc(C2CC2)nc(-n2cnc3cc(CNCCOC(F)(F)F)[nH]c3c2=O)c1 [Example 30, 6-{6-cyclopropyl-4-[4-fluoro-2-(4-methyl-4H-1,2,4-triazol-3-yl)phenyl]-2-pyridyl}-2-[(2-trifluoromethoxyethylamino)methyl]-1,6-dihydro-1,4,6-triaza-7-indenone]",< 0.1 µM,0.1 to 1 µM
"Cn1ccnc1-c1cc(F)ccc1-c1cc(C2CC2)nc(-n2cc(C#N)c3cc(CNCCCF)[nH]c3c2=O)c1 [Example 86, 6-{6-cyclopropyl-4-[4-fluoro-2-(1-methyl-2-imidazolyl)phenyl]-2-pyridyl}-2-[(3-fluoropropylamino)methyl]-7-oxo-1,6-dihydro-1,6-diaza-4-indenecarbonitrile]",< 0.1 µM,< 0.1 µM
"COCCNCc1cc2ncn(-c3cc(-c4ccc(F)cc4-n4nncc4CF)cc(C4CC4)n3)c(=O)c2[nH]1 [Example 138, 3-[6-cyclopropyl-4-[4-fluoro-2-[5-(fluoromethyl)triazol-1-yl]phenyl]pyridin-2-yl]-6-[(2-methoxyethylamino)methyl]-5H-pyrrolo[3,2-d]pyrimidin-4-one]",< 0.1 µM,< 0.1 µM
"CC1(NCc2cc3c(C4CC4)cn(-c4cc(-c5ccc(F)cc5-n5nccc5C(F)(F)F)cc(C5CC5)n4)c(=O)c3[nH]2)CCC1 [Example 103, 4-cyclopropyl-6-[6-cyclopropyl-4-[4-fluoro-2-[5-(trifluoromethyl)pyrazol-1-yl]phenyl]pyridin-2-yl]-2-[[(1-methylcyclobutyl)amino]methyl]-1H-pyrrolo[2,3-c]pyridin-7-one]",< 0.1 µM,0.1 to 1 µM
COCCNCc1cc2ncn(-c3cc(-c4ccc(F)cc4-n4nncc4C)cc(C4CC4)n3)c(=O)c2[nH]1 [Example 132],< 0.1 µM,< 0.1 µM
"C[C@H]1CCCN(Cc2cc3c(S(C)(=O)=O)cn(-c4cc(-c5ccc(C#N)cc5-c5nccn5C)cc(C5CC5)n4)c(=O)c3[nH]2)C1 [Example 99, 4-[2-(2-{[(S)-3-methyl-1-piperidyl]methyl}-4-mesyl-7-oxo-1,6-dihydro-1,6-diaza-6-indenyl)-6-cyclopropyl-4-pyridyl]-3-(1-methyl-2-imidazolyl)benzonitrile]",< 0.1 µM,< 0.1 µM
"C[C@H]1CCCCN1Cc1cc2c(C#N)cn(-c3cc(-c4c(F)cc(F)cc4-c4nccn4C)cc(C4CC4)n3)c(=O)c2[nH]1 [Example 89, 2-{[(S)-2-methyl-1-piperidyl]methyl}-6-{6-cyclopropyl-4-[4,6-difluoro-2-(1-methyl-2-imidazolyl)phenyl]-2-pyridyl}-7-oxo-1,6-dihydro-1,6-diaza-4-indenecarbonitrile]",< 0.1 µM,< 0.1 µM
"COCCNCc1cc2c(C3CC3)cn(-c3cc(-c4ccc(F)cc4-c4nc(C#N)cn4C)cc(C4CC4)n3)c(=O)c2[nH]1 [Example 110, 2-[2-[2-cyclopropyl-6-[4-cyclopropyl-2-[(2-methoxyethylamino)methyl]-7-oxo-1H-pyrrolo[2,3-c]pyridin-6-yl]pyridin-4-yl]-5-fluorophenyl]-1-methylimidazole-4-carbonitrile]",< 0.1 µM,< 0.1 µM
"Cn1cnnc1-c1cc(F)ccc1-c1cc(C2CC2)nc(-n2cc(C#N)c3cc(C(O)c4cccnc4)[nH]c3c2=O)c1 (stereo not shown) [Example 92, 6-{6-Cyclopropyl-4-[4-fluoro-2-(4-methyl-4H-1,2,4-triazol-3-yl)phenyl]-2-pyridyl}-2-[hydroxy(3-pyridyl)methyl]-7-oxo-1,6-dihydro-1,6-diaza-4-indenecarbonitrile]",< 0.1 µM,< 0.1 µM
"Cc1cc(-c2ccc(C#N)cc2-c2nccn2C)cc(-n2cc(C3CC3)c3cc(CN4CCC[C@H](C)C4)[nH]c3c2=O)n1 [Example 81, 4-[2-(2-{[(S)-3-methyl-1-piperidyl]methyl}-4-cyclopropyl-7-oxo-1,6-dihydro-1,6-diaza-6-indenyl)-6-methyl-4-pyridyl]-3-(1-methyl-2-imidazolyl)benzonitrile]",< 0.1 µM,< 0.1 µM
"Cn1cc(C#N)nc1-c1cc(F)ccc1-c1cc(C2CC2)nc(-n2cnc3cc(CNCCC(F)(F)F)[nH]c3c2=O)c1 [Example 112, 2-[2-[2-cyclopropyl-6-[4-oxo-6-[(3,3,3-trifluoropropylamino)methyl]-5H-pyrrolo[3,2-d]pyrimidin-3-yl]pyridin-4-yl]-5-fluorophenyl]-1-methylimidazole-4-carbonitrile]",< 0.1 µM,< 0.1 µM
"COCCNCc1cc2c(C(F)(F)F)cn(-c3cc(-c4ccc(F)cc4-n4cc(C)nn4)cc(C4CC4)n3)c(=O)c2[nH]1 [Example 131, 6-[6-cyclopropyl-4-[4-fluoro-2-(4-methyltriazol-1-yl)phenyl]pyridin-2-yl]-2-[(2-methoxyethylamino)methyl]-4-(trifluoromethyl)-1H-pyrrolo[2,3-c]pyridin-7-one]",< 0.1 µM,< 0.1 µM
